Test results from article PMC6952399, “Structures of lipoprotein signal peptidase II from Staphylococcus aureus complexed with antibiotics globomycin and myxovirescin” (Nature Communications, 2020).
Several values for one entry are separate records, joined by “and”; a condition that tells them apart may be missing. Identical values can stand only once.

Experiments:
[1] = molecular target: T1, LspMrs (lipoprotein signal peptidase II from methicillin-resistant Staphylococcus aureus) (Staphylococcus aureus, UniProt Q6GHN9); test: Coupled gel-shift peptidase assay with proICP substrate, LspMrs WT; assay type: biochemical; conditions: proICP substrate (12 µM pre-proICP), 0.5 µM enzyme, 30 min
T1 construct: MGSS-hexahistidine-SSGR-TEV site (ENLYFQ) (N, cleaved yes); made in house; host or cells: E. coli C43 (DE3)
Description: The peptidase activity of LspMrs and P. aeruginosa LspA (LspPae) was quantified in a coupled gel-shift assay developed previously for LspPae[5]. The P. aeruginosa lipoprotein pre-proICP and the first two enzymes in the bacterial lipoprotein processing pathway Lgt and LspA were expressed and purified, as described. For FRET assays LspMrs was expressed and purified as described above and LspPae was expressed and purified as described in a published protocol.
Gel-shift activity assay. For time course assays, reactions were set up containing 12 µM pre-proICP, 250 µM DOPG (Avanti Polar Lipids, Inc.) and 1.2 µM Lgt in Buffer E (50 mM Tris/HCl pH 7.5, 150 mM NaCl, 1 mM DTT, 0.02%(w/v) LMNG). The assay mixtures were incubated at 37 °C and 200 rpm for 60 min to allow Lgt catalysed conversion of pre-proICP to the LspA substrate proICP. The LspA reaction was initiated by adding 0.5 µM LspA directly to the assay mixture. At timed intervals, 20 µL samples were removed and the reaction was stopped by adding 10 µL of 4x SDS loading buffer (62.5 mM Tris/HCl pH 6.8, 2.5%(w/v) SDS, 0.002%(w/v) bromophenol blue, 0.5 M β-mercaptoethanol, 10%(v/v) glycerol). To compare the activity of wild-type and mutant LspMrs, assays were allowed to proceed for 30 min before being stopped with SDS loading buffer. […] Band intensities of ICP were quantified using Image Lab. […]

[2] = molecular target: T1, LspMrs (lipoprotein signal peptidase II from methicillin-resistant Staphylococcus aureus); test: FRET lipopeptide peptidase assay, LspMrs; assay type: biochemical; conditions: for IC50: IC50, FRET, 0.3 µM enzyme, 80 µM substrate, initial rates; for Rate (RFU/min): replicates 1 and 2
Method: FRET activity assays. A FRET based assay was developed using a labelled lipopeptide substrate (Supplementary Methods, Supplementary Fig. 3b) to directly monitor the protease activity of LspA. The optimised LspMrs assay buffer included 100 mM Tris/HCl pH 7.8, 150 mM NaCl and 0.09%(w/v) DDM. The corresponding optimized buffer for LspPae included 100 mM MES/NaOH pH 5.6, 150 mM NaCl and 0.05%(w/v) LMNG. All assays were performed at 37 °C.
Reaction mixtures were prepared by pipetting the FRET lipopeptide substrate (dissolved in DMSO) directly into assay buffer at a final concentration of 80 µM. Reaction mixtures were prepared by vortexing (Clifton, cyclone CM-1) for 2 s and incubated at 37 °C, 800 rpm for 10 to 30 min. Equal volumes of the reaction mixture were pipetted into 1.5 mL Eppendorf tubes and 0 to 150 µM globomycin or myxovirescin (in DMSO) added. For dose-response assays, the final DMSO concentration in all reactions was 10%(v/v). Reaction mixtures were pipetted into wells of a 96- (Thermo Scientific) or a 384-well plate (4titude®) and incubated for 10 min at 37 °C in a SpectraMax M3 or a SpectraMax M5e plate reader (Molecular devices) prior to starting the assay. Assays were initiated by adding enzyme to a final concentration in the range 10–300 nM. Total reaction mixture volume was 50 μL. Reactions were monitored by fluorescence (Ex/Em, 320 nm/420 nm) for 30 to 60 min at 37 °C. Initial rates were calculated from the fluorescence intensity versus time progress curves (Supplementary Figs. 5 and 6). Occasionally, lag periods in the progress curves were observed (Supplementary Discussion). In such cases, initial rates were calculated after the lag period had passed (typically 1–5 min) and a steady rate had been established. Dose-response plots to determine IC50 values were generated using Prism® 5 software from GraphPad.
It was possible to convert units of fluorescence change into moles of substrate consumed or products formed because pure products of LspA action on Abz-LALAGC*SS-nY-NH2 had been synthesized and were available. These were used to create a standard curve of fluorescence versus moles of the two products in equimolar amounts and to calculate specific activity values.

CCCCCC[C@H]1OC(=O)CNC(=O)[C@H]([C@H](C)O)NC(=O)[C@H](CO)NC(=O)[C@H]([C@H](C)CC)NC(=O)[C@H](CC(C)C)N(C)C(=O)[C@@H]1C [globomycin]
IC50 [1]: 171000 nM | IC50 [2]: 170 nM and 167 nM | Rate (RFU/min) ([2]; LspMrs + Globomycin, log [globomycin] (µM) 0.00): 0 RFU/min | Rate (RFU/min) ([2]; LspMrs + Globomycin, log [globomycin] (µM) -0.30): 0 RFU/min | Rate (RFU/min) ([2]; LspMrs + Globomycin, log [globomycin] (µM) -0.52): 0.33 RFU/min and 0.27 RFU/min | Rate (RFU/min) ([2]; LspMrs + Globomycin, log [globomycin] (µM) -0.70): 0.64 RFU/min and 0.57 RFU/min | Rate (RFU/min) ([2]; LspMrs + Globomycin, log [globomycin] (µM) -1.00): 1.06 RFU/min and 1.05 RFU/min | Rate (RFU/min) ([2]; LspMrs + Globomycin, log [globomycin] (µM) -2.00): 1.47 RFU/min and 1.55 RFU/min | Rate (RFU/min) ([2]; LspMrs + Globomycin, log [globomycin] (µM) -3.00): 1.53 RFU/min and 1.49 RFU/min

CCCC1OC(=O)C(C)CC(C)CCCCC(=O)CCCC(CC)C=CC=C(COC)CCC(O)C(O)CC(O)CNC1=O (stereo not drawn) [myxovirescin, myxovirescin A1]
IC50 [1]: 160 nM | IC50 [2]: 151 nM | Rate (RFU/min) ([2]; LspMrs + Myxovirescin, log [myxovirescin] (µM) 0.00): 0 RFU/min | Rate (RFU/min) ([2]; LspMrs + Myxovirescin, log [myxovirescin] (µM) -0.30): 0 RFU/min | Rate (RFU/min) ([2]; LspMrs + Myxovirescin, log [myxovirescin] (µM) -0.52): 0 RFU/min and 0.13 RFU/min | Rate (RFU/min) ([2]; LspMrs + Myxovirescin, log [myxovirescin] (µM) -0.70): 0.55 RFU/min and 0.58 RFU/min | Rate (RFU/min) ([2]; LspMrs + Myxovirescin, log [myxovirescin] (µM) -1.00): 1.04 RFU/min | Rate (RFU/min) ([2]; LspMrs + Myxovirescin, log [myxovirescin] (µM) -2.00): 1.47 RFU/min and 1.55 RFU/min | Rate (RFU/min) ([2]; LspMrs + Myxovirescin, log [myxovirescin] (µM) -3.00): 1.49 RFU/min and 1.52 RFU/min
